Series [1] is described as follows: Cytotoxicity against human NFF cells assessed as reduction in cell viability incubated for 72 hrs by SRB assay. The format is toxicity, cell-based. In general terms: The SRB assay estimates cell density from bound dye.
The nature of series [2]: Selectivity ratio of IC50 for antimalarial activity against synchronous ring stage Plasmodium falciparum 3D7 infected in human Erythrocyte assessed as inhibition of parasite growth incubated for 48 hrs by [3H]-hypoxanthine incorporation assay to IC50 for antimalarial activity against synchronous ring stage Plasmodium falciparum 3D7 infected in human Erythrocyte assessed as inhibition of parasite growth incubated for 48 hrs by [3H]-hypoxanthine incorporation assay. The format is functional.

Series [3] in a line: Selectivity index, ratio of IC50 for cytotoxicity against human NFF cells to IC50 for antimalarial activity against synchronous ring stage Plasmodium falciparum 3D7 infected in human Erythrocyte assessed as inhibition of parasite growth incubated for 96 hrs. The format is toxicity, cell-based. The following applies: read-out: Ratio IC50.
Series [4] concerns Plasmodium falciparum. The series can be described thus: Antimalarial activity against synchronous ring stage Plasmodium falciparum 3D7 infected in human Erythrocyte assessed as inhibition of parasite growth incubated for 96 hrs by [3H]-hypoxanthine incorporation assay. The format is functional, organism-based. The following applies: 3D7, Erythrocyte.
Series [5] concerns Plasmodium falciparum. The series can be described thus: Antimalarial activity against synchronous ring stage Plasmodium falciparum 3D7 infected in human Erythrocyte assessed as inhibition of parasite growth incubated for 48 hrs by [3H]-hypoxanthine incorporation assay. The format is functional, organism-based. Particulars: 3D7, Erythrocyte.

pIC50: −log10 of the molar value.

As a reminder, the IC50 is the concentration that gives 50% inhibition. What is called pIC50 is −log10 of the IC50, conventionally taken in molar units.

As to `O=S(=O)(c1nnc(N2CC3CC2CO3)o1)C1CCCCC1` (racemic), in series [1], the concentration for half-maximal inhibition (IC50) at 72 h is over 100 µM. The “Ratio IC50” value in series [2] is reported as over 32. The selectivity ratio at 96 h in series [3] is over 63. For the same compound, the pIC50 with Plasmodium falciparum [4] was 5.80; with Plasmodium falciparum [5], under 4.30.
`O=S(=O)(c1ccc(Cl)c(Cl)c1)c1nnc(N2CCOCC2)o1`: the “Ratio IC50” value in series [2] worked out at 0.5. Moreover, the pIC50 with Plasmodium falciparum [4] is 4.61; in the series with Plasmodium falciparum [5], 4.88.
For the compound `CC1CCN(c2nnc(S(=O)(=O)C3CCCCC3)o2)CC1`, the IC50 at 72 h in series [1] is over 50 µM. For the same compound, the “Ratio IC50” value in series [2] was 182. In addition, in series [3], the selectivity ratio at 96 h was over 227. For the same compound, the pIC50 with Plasmodium falciparum [4] is 6.66; in the series with Plasmodium falciparum [5], 4.41.
Regarding `O=S(=O)(c1nnc(N2CC3CCC(C2)O3)o1)C1CCCCC1`, the IC50 at 72 h in series [1] is over 100 µM. Further, the “Ratio IC50” value in series [2] was over 500. The selectivity ratio at 96 h in series [3] was over 1000. In addition, the results for the pIC50 with Plasmodium falciparum [4] and with Plasmodium falciparum [5] were 7.00 and under 4.30, respectively.
The corresponding values for `O=S(=O)(c1nnc(N2CCc3ccccc32)o1)C1CCCCC1` are over 25 µM, over 9, over 26, 5.95 and under 5.00.
For the compound `CC1(C)CCCN(c2nnc(S(=O)(=O)C3CCCCC3)o2)C1`, the IC50 at 72 h in series [1] was over 100 µM. The “Ratio IC50” value in series [2] is given as 527. Further, the selectivity ratio at 96 h in series [3] was over 2500. Moreover, the pIC50 was 7.40 in the series on Plasmodium falciparum [4] and 4.68 in the series with Plasmodium falciparum [5].
Consider `O=S(=O)(CC1CCCCC1)c1nnc(N2CCOCC2)o1`, for which the IC50 at 72 h in series [1] is 59 µM. Besides, the “Ratio IC50” value in series [2] worked out at 45. In series [3], the selectivity ratio at 96 h was 151. Further, the figures for the pIC50 in the series on Plasmodium falciparum [4] and in the series on Plasmodium falciparum [5] were 6.41 and 4.76, respectively.
The like results for `O=S(=O)(c1nnc(N2CCC(F)(F)CC2)o1)C1CCCCC1` were, in that order, over 100 µM, over 17, over 127, 6.14 and under 4.90.
In the case of `C[C@@H]1CN(c2nnc(S(=O)(=O)C3CCCCC3)o2)C[C@H](C)O1`, the IC50 at 72 h in series [1] is over 100 µM. The “Ratio IC50” value in series [2] is given as over 85. Also, the selectivity ratio at 96 h in series [3] is over 345. In addition, the pIC50 in the series with Plasmodium falciparum [4] is 6.54; in the series on Plasmodium falciparum [5], under 4.60.
On to `CC(C)(C)OC(=O)N1CCN(c2nnc(S(=O)(=O)C3CCCCC3)o2)CC1`, for which the “Ratio IC50” value in series [2] is over 18. The pIC50 is 5.56 with Plasmodium falciparum [4] and under 4.30 in the series with Plasmodium falciparum [5].
Consider `COC1CCN(c2nnc(S(=O)(=O)C3CCCCC3)o2)CC1`, for which the IC50 at 72 h in series [1] was over 100 µM. Further, the “Ratio IC50” value in series [2] was over 72. For the same compound, the selectivity ratio at 96 h in series [3] was over 145. In addition, the results for the pIC50 in the series with Plasmodium falciparum [4] and with Plasmodium falciparum [5] were 6.16 and under 4.30, respectively.
`O=S(=O)(c1nnc(N2CCCC3(COC3)C2)o1)C1CCCCC1`: the IC50 at 72 h in series [1] is over 100 µM. Further, the “Ratio IC50” value in series [2] is recorded as over 93. Also, the selectivity ratio at 96 h in series [3] is over 185. Besides, the pIC50 was 6.27 in the series with Plasmodium falciparum [4] and under 4.30 in the series with Plasmodium falciparum [5].
On to `CC1CN(c2nnc(S(=O)(=O)C3CCCCC3)o2)CCO1` (racemic), for which the IC50 at 72 h in series [1] was over 100 µM. Further, in series [2], the “Ratio IC50” value is over 66. Besides, the selectivity ratio at 96 h in series [3] is over 263. The values for the negative logarithm of the IC50 (pIC50) in the series on Plasmodium falciparum [4] and in the series with Plasmodium falciparum [5] were 6.42 and under 4.60, respectively.
In the case of `O=S(=O)(c1nnc(N2C3CCC2CC3)o1)C1CCCCC1`, in series [1], the IC50 at 72 h worked out at 33.5 µM. In addition, in series [2], the “Ratio IC50” value amounted to 7. Besides, the selectivity ratio at 96 h in series [3] amounted to 40. The pIC50 with Plasmodium falciparum [4] is 6.08; in the series with Plasmodium falciparum [5] it was 5.24.
As to `O=S(=O)(c1nnc(N2CCCC2)o1)C1CCCCC1`, the IC50 at 72 h in series [1] was over 100 µM. Besides, the “Ratio IC50” value in series [2] is on record as over 14. Moreover, the selectivity ratio at 96 h in series [3] is over 28. The results for the negative logarithm of the IC50 (pIC50) in the series on Plasmodium falciparum [4] and in the series on Plasmodium falciparum [5] were 5.45 and under 4.30, respectively.
For `O=S(=O)(c1nnc(N2CCCCC2)o1)C1CCCCC1`, in series [1], the IC50 at 72 h was over 100 µM. In series [2], the “Ratio IC50” value is on record as over 32. Moreover, the selectivity ratio at 96 h in series [3] is over 250. Besides, the pIC50 with Plasmodium falciparum [4] was 6.40; in the series with Plasmodium falciparum [5], under 4.90.
`O=S(=O)(c1nnc(N2C3CCCC2CC3)o1)C1CCCCC1`: in series [1], the IC50 at 72 h was over 100 µM. Further, in series [2], the “Ratio IC50” value is reported as over 61. Further, the selectivity ratio at 96 h in series [3] is over 246. In addition, the negative-log IC50 (pIC50) is 6.39 in the series with Plasmodium falciparum [4] and under 4.60 in the series with Plasmodium falciparum [5].
Consider `O=S(=O)(c1nnc(N2CCOc3ccccc32)o1)C1CCCCC1`, for which the half-maximal inhibitory concentration (IC50) at 72 h in series [1] was 21.4 µM. The “Ratio IC50” value in series [2] is reported as 2.3. Moreover, the selectivity ratio at 96 h in series [3] amounted to 10. For the same compound, the values for the pIC50 in the series with Plasmodium falciparum [4] and in the series with Plasmodium falciparum [5] were 5.69 and 5.33, respectively.
For `O=S(=O)(c1nnc(N2CCN(CC(F)(F)F)CC2)o1)C1CCCCC1`, the “Ratio IC50” value in series [2] is listed as over 11. For the same compound, the results for the pIC50 in the series with Plasmodium falciparum [4] and in the series with Plasmodium falciparum [5] were 5.63 and under 4.60, respectively.
In the case of `O=S(=O)(CC12CC3CC(CC(C3)C1)C2)c1nnc(N2CCCCC2)o1`, the IC50 at 72 h in series [1] worked out at 30.5 µM. Further, in series [2], the “Ratio IC50” value stood at 35. For the same compound, the selectivity ratio at 96 h in series [3] came to 76. Moreover, the figures for the pIC50 in the series on Plasmodium falciparum [4] and in the series on Plasmodium falciparum [5] were 6.40 and 4.86, respectively.
On to `O=S(=O)(c1nnc(N2CCC(c3ccccc3)CC2)o1)C1CCCCC1`, for which, in series [2], the “Ratio IC50” value is reported as over 7. Further, the figures for the negative-log IC50 (pIC50) in the series on Plasmodium falciparum [4] and with Plasmodium falciparum [5] were 4.87 and under 4.00, respectively.
With `O=S1(=O)CCN(c2nnc(S(=O)(=O)C3CCCCC3)o2)CC1`, the “Ratio IC50” value in series [2] is over 4. Also, the values for the pIC50 with Plasmodium falciparum [4] and with Plasmodium falciparum [5] were 5.17 and under 4.60, respectively.
Consider `O=S(=O)(CC1(C(F)(F)F)CCC1)c1nnc(N2CCOCC2)o1`, for which the “Ratio IC50” value in series [2] was 4. Further, the figures for the pIC50 in the series with Plasmodium falciparum [4] and in the series on Plasmodium falciparum [5] were 5.37 and 4.77, respectively.
As to `CN1CCN(c2nnc(S(=O)(=O)C3CCCCC3)o2)CC1`, the “Ratio IC50” value in series [2] is given as over 19. The pIC50 is 5.27 with Plasmodium falciparum [4] and under 4.00 in the series with Plasmodium falciparum [5].
On to `O=S(=O)(c1nnc(N2CCOCC2)s1)C1CCCCC1`, for which the pIC50 in the series on Plasmodium falciparum [4] and in the series on Plasmodium falciparum [5] was under 4.30 throughout.
In the case of `O=S(=O)(c1nnc(N2CCCCO2)o1)C1CCCCC1`, the “Ratio IC50” value in series [2] is 0.4. The values for the pIC50 in the series on Plasmodium falciparum [4] and with Plasmodium falciparum [5] were 4.74 and 5.08, respectively.
For the compound `Cl.O=S(=O)(c1nnc(N2CCOCC2)o1)C1CCNCC1`, the “Ratio IC50” value in series [2] is reported as 1. In addition, the pIC50 in the series with Plasmodium falciparum [4] and in the series on Plasmodium falciparum [5] was under 4.30 each time.
On to `O=S(=O)(CC1(C(F)(F)F)CC1)c1nnc(N2CCOCC2)o1`, for which the “Ratio IC50” value in series [2] is reported as over 4. The pIC50 with Plasmodium falciparum [4] was 5.50; with Plasmodium falciparum [5], under 4.90.
`O=S(=O)(c1nnc(N2CCNCC2)o1)C1CCCCC1`: in series [2], the “Ratio IC50” value is 16. The pIC50 is 5.45 with Plasmodium falciparum [4] and 4.24 with Plasmodium falciparum [5].
In the case of `Cc1ccc(C)c(CSc2nnc(N3CCOCC3)o2)c1`, the negative logarithm of the IC50 (pIC50) in the series on Plasmodium falciparum [4] and with Plasmodium falciparum [5] was under 4.30 each time.
Regarding `O=S(=O)(Cc1ccc(Cl)c(Cl)c1)c1nnc(N2CCOCC2)o1`, the “Ratio IC50” value in series [2] was 1.6. For the same compound, the negative-log IC50 (pIC50) with Plasmodium falciparum [4] was 5.38; with Plasmodium falciparum [5], 5.18.
Regarding `Cc1ccc(C)c(C[S+]([O-])c2nnc(N3CCOCC3)o2)c1` (stereo unspecified), the “Ratio IC50” value in series [2] was 1. The pIC50 is 4.86 in the series with Plasmodium falciparum [4] and 4.77 in the series with Plasmodium falciparum [5].
Take `O=S(=O)(c1nnc(N2CCOCC2)o1)C1CCCC1`: the “Ratio IC50” value in series [2] is on record as over 9. In addition, the negative-log IC50 (pIC50) is 5.24 in the series on Plasmodium falciparum [4] and under 4.30 in the series on Plasmodium falciparum [5].
